Assay results reported in the CheMixHub ionic liquid set.
± gives the uncertainty stated by the source.

Assay: xn = mol fraction of the nth substance listed

COP(=O)([O-])OC.Cn1cc[n+](C)c1 + CCO
Conditions | viscosity [mPa·s]
293.15 K, 100 kPa, x1 = 0.1005 | 3.24 ± 0.03
293.15 K, 100 kPa, x1 = 0.797 | 160.9 ± 5.1
293.15 K, 101 kPa, x2 = 0.5028 | 37.73 ± 0.83
293.15 K, 101 kPa, x2 = 0.6 | 24.37 ± 0.53
293.15 K, 101 kPa, x2 = 0.7999 | 6.29 ± 0.14
293.15 K, 101 kPa, x2 = 0.9 | 3.118 ± 0.067
298.15 K, 100 kPa, x1 = 0.7009 | 84.1 ± 1.3
298.15 K, 100 kPa, x1 = 0.8995 | 169.2 ± 5.6
298.15 K, 101 kPa, x1 = 0.2011 | 5.8 ± 0.2
298.15 K, 101 kPa, x1 = 0.5056 | 36.2 ± 1.5
298.15 K, 101 kPa, x1 = 0.8017 | 132.7 ± 6.7
298.15 K, 101 kPa, x2 = 0.4074 | 60.9 ± 1.3
298.15 K, 101 kPa, x2 = 0.6 | 21.18 ± 0.46
303.15 K, 100 kPa, x1 = 0.1005 | 2.62 ± 0.02
303.15 K, 100 kPa, x1 = 0.2006 | 5.25 ± 0.04
303.15 K, 100 kPa, x1 = 0.3005 | 9.92 ± 0.08
303.15 K, 101 kPa, x2 = 0.0999 | 173.7 ± 7.7
303.15 K, 101 kPa, x2 = 0.7999 | 5.01 ± 0.11
308.15 K, 100 kPa, x1 = 0.8995 | 94.2 ± 1.8
308.15 K, 100 kPa, x1 = 1 | 123.3 ± 3.2
308.15 K, 101 kPa, x2 = 0.5028 | 21.92 ± 0.48
308.15 K, 101 kPa, x2 = 0.6992 | 9.29 ± 0.2
313.15 K, 100 kPa, x1 = 0.4031 | 12.72 ± 0.1
313.15 K, 100 kPa, x1 = 0.797 | 54.3 ± 0.46
313.15 K, 101 kPa, x1 = 0.2011 | 4.2 ± 0.2
313.15 K, 101 kPa, x1 = 0.5056 | 21.2 ± 0.9
313.15 K, 101 kPa, x1 = 0.8017 | 60.8 ± 2.5
318.15 K, 100 kPa, x1 = 0.3005 | 7.04 ± 0.05
318.15 K, 100 kPa, x1 = 0.7009 | 33.29 ± 0.32
318.15 K, 100 kPa, x1 = 1 | 72.2 ± 1
318.15 K, 101 kPa, x2 = 0 | 92.8 ± 2.7
318.15 K, 101 kPa, x2 = 0.7999 | 3.702 ± 0.079
323.15 K, 100 kPa, x1 = 0.3005 | 6.41 ± 0.05
323.15 K, 100 kPa, x1 = 0.7009 | 27.5 ± 0.26
323.15 K, 100 kPa, x1 = 0.797 | 35.24 ± 0.36
323.15 K, 100 kPa, x1 = 0.8995 | 45.63 ± 0.5
323.15 K, 101 kPa, x2 = 0.0999 | 63.7 ± 1.5
323.15 K, 101 kPa, x2 = 0.9 | 1.819 ± 0.039
328.15 K, 100 kPa, x1 = 0.4996 | 12.51 ± 0.11
328.15 K, 100 kPa, x1 = 0.797 | 29.03 ± 0.3
333.15 K, 100 kPa, x1 = 0.1005 | 1.36 ± 0.01
333.15 K, 100 kPa, x1 = 0.3005 | 5.46 ± 0.04
333.15 K, 100 kPa, x1 = 0.7009 | 19.59 ± 0.19
333.15 K, 100 kPa, x1 = 0.8995 | 30.39 ± 0.34
333.15 K, 101 kPa, x1 = 0.2011 | 2.9 ± 0.1
333.15 K, 101 kPa, x1 = 0.5056 | 11.9 ± 0.5
333.15 K, 101 kPa, x1 = 0.8017 | 28 ± 1.2
338.15 K, 100 kPa, x1 = 0.4996 | 9.9 ± 0.08

CCC[NH3+].O=[N+]([O-])[O-] + CC[NH3+].O=[N+]([O-])[O-]
101 kPa, frequency 0.00293 MHz, x2 = 0.5
Conditions | electrical conductivity [S/m]
293.15 K | 1.2
303.15 K | 1.67
318.15 K | 2.53

101 kPa, x2 = 0.5
Conditions | viscosity [mPa·s]
293.15 K | 64.5
303.15 K | 44.1
318.15 K | 27.1
353.15 K | 11.5

O=[N+]([O-])[O-].[Li+] + CC[NH3+].O=[N+]([O-])[O-]
Conditions | electrical conductivity [S/m] | viscosity [mPa·s]
223 K, 100 kPa, x1 = 0.09755 | 0.01 ± 0.001 | –
223 K, 100 kPa, x1 = 0.1778 | 0.005 ± 0.001 | –
233 K, 100 kPa, x1 = 0.09755 | 0.039 ± 0.004 | –
233 K, 100 kPa, x1 = 0.1778 | 0.022 ± 0.002 | –
243 K, 100 kPa, x1 = 0.09755 | 0.104 ± 0.01 | –
243 K, 100 kPa, x1 = 0.1778 | 0.065 ± 0.007 | –
253 K, 100 kPa, x1 = 0.09755 | 0.224 ± 0.022 | –
253 K, 100 kPa, x1 = 0.1778 | 0.151 ± 0.015 | –
263 K, 100 kPa, x1 = 0.09755 | 0.414 ± 0.041 | –
263 K, 100 kPa, x1 = 0.1778 | 0.295 ± 0.03 | –
273 K, 100 kPa, x1 = 0.09755 | 0.682 ± 0.068 | –
273 K, 100 kPa, x1 = 0.1778 | 0.512 ± 0.051 | –
283 K, 100 kPa, x1 = 0.09755 | 1.03 ± 0.1 | –
283 K, 100 kPa, x1 = 0.1778 | 0.81 ± 0.081 | –
288.15 K, 100 kPa, x1 = 0.09755 | – | 56.2 ± 0.92
288.15 K, 100 kPa, x1 = 0.1778 | – | 68.6 ± 1.4
293 K, 100 kPa, x1 = 0.09755 | 1.47 ± 0.15 | –
293 K, 100 kPa, x1 = 0.1778 | 1.19 ± 0.12 | –
293.15 K, 100 kPa, x1 = 0.09755 | – | 46.97 ± 0.88
293.15 K, 100 kPa, x1 = 0.1778 | – | 56.13 ± 0.91
298.15 K, 100 kPa, x1 = 0.09755 | – | 39.49 ± 0.73
298.15 K, 100 kPa, x1 = 0.1778 | – | 46.25 ± 0.84
298.15 K, 101 kPa, x2 = 0.8222 | – | 68.1 ± 2.4
303 K, 100 kPa, x1 = 0.09755 | 1.99 ± 0.2 | –
303 K, 100 kPa, x1 = 0.1778 | 1.67 ± 0.17 | –
303.15 K, 100 kPa, x1 = 0.09755 | – | 33.4 ± 0.62
303.15 K, 100 kPa, x1 = 0.1778 | – | 38.36 ± 0.7
308.15 K, 100 kPa, x1 = 0.09755 | – | 28.4 ± 0.52
308.15 K, 100 kPa, x1 = 0.1778 | – | 32.01 ± 0.58
313 K, 100 kPa, x1 = 0.09755 | 2.58 ± 0.26 | –
313 K, 100 kPa, x1 = 0.1778 | 2.22 ± 0.22 | –
313.15 K, 100 kPa, x1 = 0.09755 | – | 24.27 ± 0.45
313.15 K, 100 kPa, x1 = 0.1778 | – | 26.86 ± 0.49
323 K, 100 kPa, x1 = 0.09755 | 3.23 ± 0.32 | –
323 K, 100 kPa, x1 = 0.1778 | 2.86 ± 0.29 | –
333 K, 100 kPa, x1 = 0.09755 | 3.95 ± 0.4 | –
333 K, 100 kPa, x1 = 0.1778 | 3.58 ± 0.36 | –
343 K, 100 kPa, x1 = 0.09755 | 4.73 ± 0.47 | –
343 K, 100 kPa, x1 = 0.1778 | 4.36 ± 0.44 | –
353 K, 100 kPa, x1 = 0.09755 | 5.54 ± 0.55 | –
353 K, 100 kPa, x1 = 0.1778 | 5.21 ± 0.52 | –
363 K, 100 kPa, x1 = 0.09755 | 6.4 ± 0.64 | –
363 K, 100 kPa, x1 = 0.1778 | 6.11 ± 0.61 | –
373 K, 100 kPa, x1 = 0.09755 | 7.29 ± 0.73 | –
373 K, 100 kPa, x1 = 0.1778 | 7.06 ± 0.71 | –
